# In ChEMBL document CHEMBL5725591, “Tricyclic PI3K inhibitor compounds and methods of use” (2018):
# Molecular target: Phosphatidylinositol 4,5-bisphosphate 3-kinase catalytic subunit alpha isoform (Homo sapiens, UniProt P42336)
# Experiment: p110alpha (alpha) PI3K Binding Assay: PI3K Binding assays are intended for determining the biochemical potency of small molecule PI3K inhibitors. The PI3K lipid kinase reaction is performed in the presence of PIP2:3PS lipid substrate (Promega #V1792) and ATP. Following the termination if the kinase reaction, turnover of ATP to ADP by the phosphorylation of the lipid substrate is detected using the Promega ADP-Glo¿ (Promega #V1792) assay.
# Phosphatidylinositol 4,5-bisphosphate 3-kinase catalytic subunit alpha isoform, sequence (P42336 whole entry, canonical isoform): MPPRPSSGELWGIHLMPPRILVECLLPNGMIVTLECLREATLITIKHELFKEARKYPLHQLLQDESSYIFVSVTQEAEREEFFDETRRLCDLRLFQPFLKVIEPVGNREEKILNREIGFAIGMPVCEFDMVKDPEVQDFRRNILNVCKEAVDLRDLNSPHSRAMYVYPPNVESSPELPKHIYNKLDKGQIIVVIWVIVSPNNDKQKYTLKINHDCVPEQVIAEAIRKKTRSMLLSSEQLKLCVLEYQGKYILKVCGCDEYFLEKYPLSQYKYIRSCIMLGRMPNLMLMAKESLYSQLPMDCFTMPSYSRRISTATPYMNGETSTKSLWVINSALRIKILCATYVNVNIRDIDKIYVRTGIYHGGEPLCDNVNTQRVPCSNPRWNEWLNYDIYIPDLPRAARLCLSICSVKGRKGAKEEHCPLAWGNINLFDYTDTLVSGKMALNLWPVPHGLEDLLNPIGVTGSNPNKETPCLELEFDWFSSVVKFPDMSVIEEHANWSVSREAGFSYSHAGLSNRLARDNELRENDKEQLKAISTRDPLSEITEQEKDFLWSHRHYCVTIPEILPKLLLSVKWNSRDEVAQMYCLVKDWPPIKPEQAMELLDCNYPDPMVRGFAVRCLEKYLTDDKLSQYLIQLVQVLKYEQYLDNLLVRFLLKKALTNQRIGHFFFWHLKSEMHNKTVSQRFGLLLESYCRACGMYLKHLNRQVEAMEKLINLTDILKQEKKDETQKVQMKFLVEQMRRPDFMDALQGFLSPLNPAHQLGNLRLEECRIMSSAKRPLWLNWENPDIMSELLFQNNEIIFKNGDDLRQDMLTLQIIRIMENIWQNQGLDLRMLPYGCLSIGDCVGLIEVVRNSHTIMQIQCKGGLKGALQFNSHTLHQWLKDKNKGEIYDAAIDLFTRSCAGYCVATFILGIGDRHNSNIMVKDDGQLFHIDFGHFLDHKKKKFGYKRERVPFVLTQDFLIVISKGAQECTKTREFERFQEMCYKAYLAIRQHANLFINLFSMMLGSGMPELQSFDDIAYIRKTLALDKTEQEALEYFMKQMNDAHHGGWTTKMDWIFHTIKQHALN
row,SMILES,Ki [nM]
1,Cn1cc(-c2nc3cc(N[C@H](C(N)=O)C4CC4)cc4c3n2CCCO4)cn1,359
2,Cn1ncnc1-c1nc2cc(N[C@H](C(N)=O)C3CC3)cc3c2n1CCCO3,396

# Second part, the compound after the results:
row,Ki [nM],SMILES
1,0.8,"CC[C@@H](Oc1cc2c3c(c1)nc(-c1ccc4oc(N)nc4c1)n3CCCO2)C(N)=O (single isomer, unassigned)"
2,24.1,NC(=O)[C@@H](Nc1cc2c3c(c1)nc(-c1ccc4c(n1)OCCO4)n3CCCO2)C1CC1
3,0.27,"CC[C@H](Oc1cc2c3c(c1)nc(-c1ccc4oc(N)nc4c1)n3CCCO2)C(N)=O (single isomer, unassigned)"
